Laboratory results published in patent US20220275372A1, “CONJUGATE AND USES THEREOF” (priority 2019, published 2022).

Assays:
[1] = ELISA biodistribution of PMO in tissues of treated HSA-LR mice; type: in vivo, mouse; conditions: for delivery of PMO to muscle: 2 weeks after IV administration
Experimental: Animal model and ASO injections. […] The intravenous injections in HSA-LR or C57BL/6 mice were performed by single or multiple administrations via the tail vein. […] Multiple injections were done at 2 weeks apart. Myotonia was evaluated and tissues were harvested 2 weeks after the last injection. For long-term experiments, tissues were harvested 3 months after the injection. For toxicology measurements, tissues were harvested after 1 week. Urine was tested by ELISAs (R&D cat# MKM100) with samples diluted to fit within standard curve. Values were normalised to urinary creatinine levels (Harwell) to account for urine protein concentration
ELISA based measurements of oligonucleotide concentrations in tissues. […] The probe was used to detect peptide-PMOs or naked PMO concentrations in eight different tissues (brain, kidney, liver, lung, heart, diaphragm, gastrocnemius and quadriceps) from treated HSA-LR mice.

[2] = system: Mbnl-dependent transcripts (Clcn1 exon 7a, Serca exon22, Mbnl1 exon 5, Ldb3 exon11); assay: RT-PCR splicing correction in muscle of HSA-LR mice; type: in vivo, mouse; conditions: for splicing defects (clcn1 exon 7a, serca exon22, mbnl1 exon 5): 30 mg/kg IV, gastrocnemius and quadriceps of HSA-LR mice, two weeks after treatment; for splicing of Clcn1 exon 7a, Serca exon22, Mbnl1 exon 5 and Ldb3 exon11: 30 and 40 mg/kg, gastrocnemius of HSA-LR mice; for duration of splicing correction after treatment / splicing correction after single low doses: HSA-LR mice; for splicing correction after single low doses: single low doses (5 and 7.5 mg/kg)
Experimental: (§1) Animal model and ASO injections. Experiments were carried out in the University of Oxford or in the “Centre d'études fonctionnelles” (Faculté de Médecine Sorbonne University) according to UK and French legislation respectively (Ethics committee approval #1760-2015091512001083v6). The intravenous injections in HSA-LR or C57BL/6 mice were performed by single or multiple administrations via the tail vein. Doses of 5, 7.5, 12.5, 30 or 40 mg/kg of peptide-PMO-CAG7 and 12.5 or 200 mg/kg of PMO were diluted in 0.9% saline and given at a volume of 5-6 μL/g of body weight. Multiple injections were done at 2 weeks apart. Myotonia was evaluated and tissues were harvested 2 weeks after the last injection. For long-term experiments, tissues were harvested 3 months after the injection. For toxicology measurements, tissues were harvested after 1 week. Urine was tested by ELISAs (R&D cat# MKM100) with samples diluted to fit within standard curve. Values were normalised to urinary creatinine levels (Harwell) to account for urine protein concentration
RNA isolation, RT-PCR and qPCR analysis. For mice tissues: prior to RNA extraction, muscles were disrupted in TriReagent (Sigma-Aldrich) using Fastprep system and Lysing Matrix D tubes (MP biomedicals). For human cells: prior to RNA extraction, cells were lysed in a proteinase K buffer (500 mM NaCl, 10 mM Tris-HCl, pH 7.2, 1.5 mM MgCl2, 10 mM EDTA, 2% SDS and 0.5 mg/ml of proteinase K) for 45 min at 55° C. Total RNAs were isolated using TriReagent according to the manufacturer's protocol. One microgram of RNA was reverse transcribed using M-MLV first-strand synthesis system (Life Technologies) according to the manufacturer's instructions in a total of 20 μL. One microliter of cDNA preparation was subsequently used in a semi-quantitative PCR analysis according to standard protocol (ReddyMix, Thermo Scientific).
PCR amplification was carried out for 25-35 cycles within the linear range of amplification for each gene. PCR products were resolved on 1.5-2% agarose gels, ethidium bromide-stained and quantified with ImageJ software. The ratios of exon inclusion were quantified as a percentage of inclusion relative to total intensity of isoform signals. To quantify the mRNA expression, real-time PCR was performed according to the manufacturer's instructions. PCR cycles were a 15-min denaturation step followed by 50 cycles with a 94° C. denaturation for 15 s, 58° C. annealing for 20 s and 72° C. extension for 20 s.

[3] = system: WT mice; assay: Recovery time after injection, WT mice; type: in vivo, mouse; conditions: 30 mg/kg, age 8-12 weeks
Experimental: as §1

[4] = system: human myoblasts; assay: Cell viability in human myoblasts; type: cell-based; conditions: 1-40 μM, 48 hours
Experimental: (§2) Cell culture and Peptide-PMO treatment. Immortalized myoblasts from healthy individual or DM1 patient with 2600 CTG repeats were cultivated in a growth medium consisting of a mix of M199:DMEM (1:4 ratio; Life technologies) supplemented with 20% FBS (Life technologies), 50 μg/ml gentamycin (Life technologies), 25 μg/ml fetuin, 0.5 ng/ml bFGF, 5 ng/ml EGF and 0.2 μg/ml dexamethasone (Sigma-Aldrich). Myogenic differentiation was induced by switching confluent cell cultures to DMEM medium supplemented with […] insulin (Sigma-Aldrich) for myoblasts. For treatment, WT or DM1 cells are differentiated for 4 days. Then, medium was changed with fresh differentiation medium with peptide-PMO conjugates at a 1, 2 ,5 10, 20 or 40 μM concentration. Cells were harvested for analysis 48 h after treatment. Cell viability was quantified in after 2 days of transfection of peptide-PMOs at 40 uM in human hepatocytes or at a 1, 2 ,5 10, 20 or 40 μM concentration in human myoblasts using a fluorescent-based assay (Promega).

[5] = system: human hepatocytes; assay: Cell viability in human hepatocytes; type: cell-based; conditions: 40 μM
Experimental: as §2

[6] = system: mice; assay: Mortality in mice; conditions: mouse, in vivo
[7] = 600 mg/kg (3 injections at 200 mg/kg) IV, 2 weeks post administration

Substance: Ac-RBRRBRFQILYBRBR-B [DPEP1.9]
- delivery of PMO to muscle [1]: able to deliver the PMO to muscle successfully
- splicing defects (clcn1 exon 7a, serca exon22, mbnl1 exon 5) [2]: corrected to wild type levels
- splicing of Clcn1 exon 7a, Serca exon22, Mbnl1 exon 5 and Ldb3 exon11 [2]: splicing normalization to wild type levels
- duration of splicing correction after treatment [2]: at least 3 months
- splicing correction after single low doses [2]: significant

Substance: Ac-RBRRBRFQILYBRBR-E [DPEP1.9b]
- delivery of PMO to muscle [1]: able to deliver the PMO to muscle successfully
- recovery time after injection, time AV ± SD [3]: 15 min

Substance: Ac-RBRRBRFQILYRBHBH-B [DPEP3.8]
- splicing defects (clcn1 exon 7a, serca exon22, mbnl1 exon 5) [2]: corrected to wild type levels
- splicing of Clcn1 exon 7a, Serca exon22, Mbnl1 exon 5 and Ldb3 exon11 [2]: splicing normalization to wild type levels
- duration of splicing correction after treatment [2]: at least 3 months
- splicing correction after single low doses [2]: significant

Substance: Ac-RBRRBRRFQILYRBHBH-Ab [DPEP3.1a]
- recovery time after injection, time AV ± SD [3]: 10 min

Substance: Ac-RXRRBRR-FQILY-RBRXR-B [Pip9b2-PMO]
- cell viability of human myoblasts [4]: induced cell mortality at lower doses
- cell mortality in human hepatocytes [5]: > 50%

Substance: Ac-RXRRBRRXR-YQFLI-RXRBRXR-B [pip6a]
- cell viability of human myoblasts [4]: induced cell mortality at lower doses
- cell mortality in human hepatocytes [5]: > 50%
- dose that cannot be tested without causing high rates of mortality in mice [6]: > 20 mg/kg

Substance: CAGCAGCAGCAGCAGCAGCAG (all phosphorodiamidate morpholino (PMO); Cell-penetrating peptide conjugated to the 3' end in the conjugates, further chemistry not fully specified) [Naked PMO]
- pM in Tissue: Diaphragm [1, 7]: 30 pM
- pM in Tissue: Gastrocnemius [1, 7]: 18 pM
- pM in Tissue: Heart [1, 7]: 198 pM
- pM in Tissue: Kidney [1, 7]: 426748 pM
- pM in Tissue: Liver [1, 7]: 252 pM
- pM in Tissue: Lung [1, 7]: 113 pM
- PMO levels in all tissues tested ([1]; 3 injections at 200 mg/kg, 2 weeks post administration): low to non-detectable levels
- PMO detected in muscle tissues ([1]; two weeks after 3x200 mg/kg naked PMO IV): low pM
